Measured values as given in patent US20070128217A1 (priority 2003, published 2007).

What was measured:
[1] = tested on: antibodies in sera from SARS patients (sera 1a, 1b, 2, 6, 37, 62, London, SARS-yellow, SARS-green); type: binding, human; parameters: Binding of serum 6 to linear peptides of protein X1 of SARS-CoV Urbani / Binding of serum 37 to linear peptides of protein X1 of SARS-CoV Urbani / Binding of serum 6 to looped/cyclic peptide (PEPSCAN-ELISA) / Binding of serum 37 to looped/cyclic peptide (PEPSCAN-ELISA) / Binding of serum 37 to looped/cyclic peptides of protein X1 of SARS-CoV Urbani / Binding of serum 6 to linear peptides of protein X2 / Binding of serum 37 to linear peptides of protein X2 / Binding of serum 37 to looped/cyclic peptides of protein X2 of SARS-CoV Urbani / Binding of serum 6 to linear peptides of protein M of SARS-CoV Urbani / Binding of serum 37 to linear peptides of protein M of SARS-CoV Urbani / Binding of serum 6 to looped/cyclic peptides of protein M of SARS-CoV Urbani / Binding of serum 37 to looped/cyclic peptides of protein M of SARS-CoV Urbani / Binding of serum 6 to linear peptides of protein X3 of SARS-CoV Urbani / Binding of serum 37 to linear peptides of protein X3 of SARS-CoV Urbani / Binding of serum 37 to looped/cyclic peptides of protein X3 of SARS-CoV Urbani / Binding of serum 6 to linear peptides of protein X4 of SARS-CoV Urbani / Binding of serum 37 to linear peptides of protein X4 of SARS-CoV Urbani / Binding of serum 37 to looped/cyclic peptides of protein X4 of SARS-CoV Urbani / Binding of serum 6 to linear peptides of protein X5 of SARS-CoV Urbani / Binding of serum 37 to linear peptides of protein X5 of SARS-CoV Urbani / Binding of serum 37 to looped/cyclic peptides of protein X5 of SARS-CoV Urbani / Binding of serum 6 to linear peptides of protein N of SARS-CoV Urbani / Binding of serum 37 to linear peptides of protein N of SARS-CoV Urbani / Binding of serum 6 to linear peptide (PEPSCAN-ELISA) / Binding of serum 1a to looped/cyclic peptides of protein N of SARS-CoV Urbani / Binding of serum 1b to looped/cyclic peptides of protein N of SARS-CoV Urbani / Binding of serum 2 to looped/cyclic peptides of protein N of SARS-CoV Urbani / Binding of serum 6 to looped/cyclic peptides of protein N of SARS-CoV Urbani / Binding of serum 37 to looped/cyclic peptides of protein N of SARS-CoV Urbani / Binding of serum 62 to looped/cyclic peptides of protein N of SARS-CoV Urbani / Binding of serum London to looped/cyclic peptides of protein N of SARS-CoV Urbani / Binding of serum SARS-green to looped/cyclic peptides of protein N of SARS-CoV Urbani: unit not given here
[2] = tested on: control sera (pooled serum of ten healthy LUMC hospital workers; commercial negative donor pooled serum from the Dutch bloodbank); type: binding, human; parameters: Binding of Control serum LUMC to linear peptides / Binding of Control serum Blood-bank to linear peptides / Binding of Control serum LUMC to looped peptides / Binding of Control Serum Blood-Bank to Looped peptides / Binding of Control serum LUMC to linear peptides of the protein M of SARS-CoV Urbani / Binding of Control serum Blood-bank to linear peptides of the protein M of SARS-CoV Urbani / Binding of Control serum LUMC to looped peptides of the protein M of SARS-CoV Urbani / Binding of Control Serum Blood-Bank to Looped peptides of the protein M of SARS-CoV Urbani: unit not given here
[3] = tested on: rabbit serum obtained by immunizing a rabbit with the SARS-CoV strain Frankfurt 1; type: binding; parameters: Binding of a rabbit serum to linear peptides / Binding of a rabbit serum to looped peptides / Rabbit serum linear peptides / Rabbit serum looped peptides / Binding of a rabbit serum to linear peptides of protein N of SARS-CoV Urbani (Rabbit serum linear peptides) / Binding of a rabbit serum to looped/cyclic peptides of protein N of SARS-CoV Urbani (Rabbit serum looped peptides): unit not given here

IMLLQFAYSNRNRFL
0.3: Binding of serum 62 to linear peptides of protein M of SARS-CoV Urbani [1] | Binding of serum London to linear peptides of protein M of SARS-CoV Urbani [1] | Binding of serum SARS-green to looped/cyclic peptides of protein M of SARS-CoV Urbani [1]
1.0: Binding of serum 6 to looped/cyclic peptides of protein M of SARS-CoV Urbani [1]
0.5: Binding of serum 1b to linear peptides of protein M of SARS-CoV Urbani [1] | Binding of serum 62 to looped/cyclic peptides of protein M of SARS-CoV Urbani [1] | Binding of Control Serum Blood-Bank to Looped peptides of the protein M of SARS-CoV Urbani [2] | Binding of Control serum Blood-bank to linear peptides of the protein M of SARS-CoV Urbani [2] | Rabbit serum looped peptides [3]
0.2: Binding of serum SARS-yellow to linear peptides of protein M of SARS-CoV Urbani [1] | Rabbit serum linear peptides [3]
0.4: Binding of serum 1b to looped/cyclic peptides of protein M of SARS-CoV Urbani [1] | Binding of serum 2 to linear peptides of protein M of SARS-CoV Urbani [1] | Binding of serum 6 to linear peptides of protein M of SARS-CoV Urbani [1] | Binding of serum 37 to linear peptides of protein M of SARS-CoV Urbani [1] | Binding of serum SARS-green to linear peptides of protein M of SARS-CoV Urbani [1]
0.7: Binding of serum 1a to linear peptides of protein M of SARS-CoV Urbani [1]
0.6: Binding of serum 1a to looped/cyclic peptides of protein M of SARS-CoV Urbani [1] | Binding of serum 2 to looped/cyclic peptides of protein M of SARS-CoV Urbani [1] | Binding of serum 37 to looped/cyclic peptides of protein M of SARS-CoV Urbani [1] | Binding of serum London to looped/cyclic peptides of protein M of SARS-CoV Urbani [1] | Binding of serum SARS-yellow to looped/cyclic peptides of protein M of SARS-CoV Urbani [1] | Binding of Control serum LUMC to linear peptides of the protein M of SARS-CoV Urbani [2] | Binding of Control serum LUMC to looped peptides of the protein M of SARS-CoV Urbani [2]

THRMCKYTQSTALQE
0.9: Binding of serum 1a to linear peptides of protein X2 [1] | Binding of Control serum Blood-bank to linear peptides [2]
0.6: Binding of serum 1b to looped/cyclic peptides of protein X2 of SARS-CoV Urbani [1] | Binding of serum 6 to linear peptides of protein X2 [1] | Binding of serum SARS-green to linear peptides of protein X2 [1]
0.2: Binding of serum 2 to looped/cyclic peptides of protein X2 of SARS-CoV Urbani [1] | Binding of serum 6 to looped/cyclic peptides of protein X2 of SARS-CoV Urbani [1] | Binding of serum London to looped/cyclic peptides of protein X2 of SARS-CoV Urbani [1]
0.5: Binding of serum 1a to looped/cyclic peptides of protein X2 of SARS-CoV Urbani [1] | Binding of serum 2 to linear peptides of protein X2 [1] | Binding of serum SARS-green to looped/cyclic peptides of protein X2 of SARS-CoV Urbani [1] | Binding of Control Serum Blood-Bank to Looped peptides [2]
0.4: Binding of serum 62 to looped/cyclic peptides of protein X2 of SARS-CoV Urbani [1] | Binding of Control serum LUMC to looped peptides [2]
0.7: Binding of serum 37 to linear peptides of protein X2 [1] | Binding of serum London to linear peptides of protein X2 [1] | Binding of Control serum LUMC to linear peptides [2]
0.3: Binding of serum 37 to looped/cyclic peptides of protein X2 of SARS-CoV Urbani [1] | Binding of serum SARS-yellow to looped/cyclic peptides of protein X2 of SARS-CoV Urbani [1] | Binding of a rabbit serum to linear peptides [3] | Binding of a rabbit serum to looped peptides [3]
0.8: Binding of serum 1b to linear peptides of protein X2 [1] | Binding of serum 62 to linear peptides of protein X2 [1] | Binding of serum SARS-yellow to linear peptides of protein X2 [1]

YFTEVYYQLESTQIT
0.4: Binding of serum 2 to linear peptides of protein X1 of SARS-CoV Urbani [1] | Binding of serum 6 to linear peptides of protein X1 of SARS-CoV Urbani [1] | Binding of serum 37 to looped/cyclic peptides of protein X1 of SARS-CoV Urbani [1] | Binding of serum 62 to looped/cyclic peptides of protein X1 of SARS-CoV Urbani [1] | Binding of Control Serum Blood-Bank to Looped peptides [2] | Binding of Control serum Blood-bank to linear peptides [2] | Binding of Control serum LUMC to linear peptides [2] | Binding of a rabbit serum to looped peptides [3]
0.7: Binding of serum 1a to linear peptides of protein X1 of SARS-CoV Urbani [1]
0.1: Binding of a rabbit serum to linear peptides [3]
0.3: Binding of serum 2 to looped/cyclic peptides of protein X1 of SARS-CoV Urbani [1] | Binding of serum London to linear peptides of protein X1 of SARS-CoV Urbani [1] | Binding of serum SARS-green to linear peptides of protein X1 of SARS-CoV Urbani [1] | Binding of serum SARS-yellow to linear peptides of protein X1 of SARS-CoV Urbani [1] | Binding of serum SARS-yellow to looped/cyclic peptides of protein X1 of SARS-CoV Urbani [1]
0.2: Binding of serum 6 to looped/cyclic peptides of protein X1 of SARS-CoV Urbani [1] | Binding of serum London to looped/cyclic peptides of protein X1 of SARS-CoV Urbani [1] | Binding of serum SARS-green to looped/cyclic peptides of protein X1 of SARS-CoV Urbani [1]
0.6: Binding of serum 1b to linear peptides of protein X1 of SARS-CoV Urbani [1] | Binding of serum 37 to linear peptides of protein X1 of SARS-CoV Urbani [1] | Binding of serum 62 to linear peptides of protein X1 of SARS-CoV Urbani [1]
0.5: Binding of serum 1a to looped/cyclic peptides of protein X1 of SARS-CoV Urbani [1] | Binding of serum 1b to looped/cyclic peptides of protein X1 of SARS-CoV Urbani [1] | Binding of Control serum LUMC to looped peptides [2]
